In patent US10167279B2 (NOVARTIS AG, priority 2014, dated 2019):

Each molecule was assayed against C-Raf FL (Homo sapiens (Human), UniProt P04049, Y340E/Y341E) (assay: In vitro Raf activity determination (Alpha Screen, phospho-MEK), C-Raf FL (full length, Y340E/Y341E)). Conditions: ATP 1 μM; 60 min pre-incubation; 1 hour reaction; column head does not say FL or TR.
Format: biochemical
Source text: The activity of a compound according to the present invention can be assessed by well-known in vitro & in vivo methods. Raf inhibition data provided herein was obtained using the following procedures.
Sf9 cells co-expressing both proteins were lysed and subjected to immobilized nickel chromatography and eluted with Imidazole. A second column (StrepII binding column) was used and eluted with desthiobiotin. Protein Tags were removed using Prescission enzyme and the protein was further purified using a flowthrough step to remove tags.
C-Raf TR refers to a truncated C-Raf protein, a Δ1-324 deletion mutant. C-Raf FL refers to the full-length C-Raf protein.
Full length MEK1 with an inactivating K97R ATP binding site mutation is utilized as a RAF substrate. The MEK1 cDNA was subcloned with an N-terminal (his)6 tag into a vector for E. Coli expression. The MEK1 substrate was purified from E. Coli lysate by nickel affinity chromatography followed by anion exchange. The final MEK1 preparation was biotinylated (Pierce EZ-Link Sulfo-NHS-LC-Biotin) and concentrated.
Assay protocol: Raf and biotinylated Mek (kinase dead) were combined at 2× final concentrations in assay buffer (50 mM Tris, pH 7.5, 15 mM MgCl2, 0.01% BSA and 1 mM DTT) and dispensed […] per well in assay plates (Greiner white 384 well assay plates #781207) containing […] of 40× of a Raf kinase inhibitor test compound diluted in 100% DMSO. The plate was incubated for 60 minutes at room temperature. […] The reactions were stopped and the phosphorylated product was measured using a rabbit anti-p-MEK (Cell Signaling, #9121) antibody and the Alpha Screen IgG (ProteinA) detection Kit (PerkinElmer #6760617R), by the addition of […] to the well of a mixture of the antibody (1:2000 dilution) and detection beads (1:2000 dilution of both beads) in Stop/bead buffer (25 mM EDTA, 50 mM Tris, pH 7.5, 0.01% Tween20). The additions were carried out under dark conditions to protect the detection beads from light. A lid was placed on top of the plate and incubated for 1 hour at room temperature, after which the luminescence was read on a PerkinElmer Envision instrument. The concentration of each compound for 50% inhibition (IC50) was calculated by non-linear regression using XL Fit data analysis software.

Chain of C-Raf FL (P04049 whole entry Y340E/Y341E): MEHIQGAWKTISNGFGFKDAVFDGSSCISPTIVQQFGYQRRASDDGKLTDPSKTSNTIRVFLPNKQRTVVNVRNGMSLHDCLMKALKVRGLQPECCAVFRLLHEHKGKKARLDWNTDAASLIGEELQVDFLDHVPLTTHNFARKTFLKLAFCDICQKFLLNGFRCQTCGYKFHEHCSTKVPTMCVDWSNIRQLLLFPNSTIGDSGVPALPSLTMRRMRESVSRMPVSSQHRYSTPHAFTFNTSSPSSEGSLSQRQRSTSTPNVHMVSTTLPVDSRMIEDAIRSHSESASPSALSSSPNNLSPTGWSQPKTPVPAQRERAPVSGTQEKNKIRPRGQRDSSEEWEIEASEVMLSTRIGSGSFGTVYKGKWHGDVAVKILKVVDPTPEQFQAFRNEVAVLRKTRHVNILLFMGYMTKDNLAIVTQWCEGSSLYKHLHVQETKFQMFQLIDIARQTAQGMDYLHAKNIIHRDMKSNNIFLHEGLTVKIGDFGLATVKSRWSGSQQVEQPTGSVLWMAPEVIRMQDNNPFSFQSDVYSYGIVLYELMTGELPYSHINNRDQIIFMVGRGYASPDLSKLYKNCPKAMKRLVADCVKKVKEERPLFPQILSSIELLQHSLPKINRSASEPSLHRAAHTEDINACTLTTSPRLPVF
Chain of C-Raf FL (P63104 whole entry partner): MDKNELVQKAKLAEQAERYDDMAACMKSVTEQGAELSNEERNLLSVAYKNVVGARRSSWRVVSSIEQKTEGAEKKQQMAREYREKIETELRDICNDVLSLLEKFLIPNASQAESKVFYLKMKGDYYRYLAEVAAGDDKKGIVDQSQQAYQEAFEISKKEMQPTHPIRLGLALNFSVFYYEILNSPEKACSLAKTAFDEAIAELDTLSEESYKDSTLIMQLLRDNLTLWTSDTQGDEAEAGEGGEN

SMILES | IC50
Cc1ccc(NC(=O)c2cc(C(F)(F)F)ccn2)cc1-c1cc(OC[C@@H](O)CO)nc(C2CCOCC2)c1 [Example 284] | 0.2 nM
CCOc1ncc(-c2cc(NC(=O)c3cccc(C(F)(F)F)c3)cnc2C)cc1C1(CO)CCOC1 (centres unmarked) [Example 290, N-(6′-ethoxy-5′-(3-(hydroxymethyl)tetrahydrofuran-3-yl)-2-methyl-[3,3′-bipyridin]-5-yl)-3-(trifluoromethyl) benzamide] | 2 nM
Cc1ccc(NC(=O)c2ccnc(C(C)(F)F)c2)cc1-c1cc(OCCO)nc(C2(CO)CCOCC2)c1 [Example 216, 2-(1,1-difluoroethyl)-N-(3-(2-(2-hydroxyethoxy)-6-(4-(hydroxymethyl)tetrahydro-2H-pyran-4-yl)pyridin-4-yl)-4-methylphenyl) isonicotinamide] | 0.2 nM
Cc1ccc(NC(=O)c2cc(C(F)(F)F)cnn2)cc1-c1cc(OCCO)nc(C2CCOCC2)c1 [Example 258, N-(3-(2-(2-hydroxyethoxy)-6-(tetrahydro-2H-pyran-4-yl)pyridin-4-yl)-4-methylphenyl)-5-(trifluoromethyl) pyridazine-3-carboxamide] | 0.02 nM
Cc1nc2cc(C3CCOCC3)cc(-c3cc(NC(=O)c4cnnc(C(F)(F)F)c4)ccc3C)c2[nH]1 [Example 221, N-(4-methyl-3-(2-methyl-5-(tetrahydro-2H-pyran-4-yl)-1H-benzo[d]imidazol-7-yl)phenyl)-6-(trifluoromethyl) pyridazine-4-carboxamide] | 2 nM
Cc1ccc(NC(=O)c2ccnc(C(F)(F)F)c2)cc1-c1cc(C2(O)COC2)cc(C2(F)COC2)c1 [Example 135, N-(3′-(3-fluorooxetan-3-yl)-5′-(3-hydroxyoxetan-3-yl)-6-methyl-[1,1′-biphenyl]-3-yl)-2-(trifluoromethyl)isonicotin-amide] | 0.605 nM
Cc1ccc(NC(=O)c2ccnc(C(C)(F)F)c2)cc1-c1cc2c(c(C3CCOCC3)c1)OC(C)(C)C(=O)N2 [Example 197, 2-(1,1-difluoroethyl)-N-(3-(2,2-dimethyl-3-oxo-8-(tetrahydro-2H-pyran-4-yl)-3,4-dihydro-2H-benzo[b][1,4]oxazin-6-yl)-4-methylphenyl) isonicotinamide] | 0.4 nM
Cc1ncc(NC(=O)c2cccc(C(F)(F)F)c2)cc1-c1cc(C2(C)COC2)c(OCCO)nn1 [Example 16, N-(5-(6-(2-hydroxyethoxy)-5-(3-methyloxetan-3-yl)pyridazin-3-yl)-6-methylpyridin-3-yl)-3-(trifluoromethyl)benzamide] | 0.4 nM
Cc1ccc(NC(=O)c2ccnc(C(F)(F)F)c2)cc1-c1cc(N2CCOC2=O)nc(C2(O)CCOCC2)c1 [Example 286, N-(3-(2-(4-hydroxytetrahydro-2H-pyran-4-yl)-6-(2-oxooxazolidin-3-yl)pyridin-4-yl)-4-methylphenyl)-2-(trifluoromethyl)isonicotinamide] | 0.297 nM
Cc1ccc(NC(=O)c2cnnc(C(F)(F)F)c2)cc1-c1cc(OCCO)nc(C2CCOCC2O)c1 (centres unmarked) [Example 245] | 1 nM
Cc1ncc(NC(=O)c2ccnc(C(C)(C)F)c2)cc1-c1cc(C2(F)COC2)cc(OCCO)n1 [Example 48] | 7.53 nM
Cc1ccc(NC(=O)c2cccc(C(F)(F)F)c2)cc1-c1cc(C2CCOCC2)nc(N2CCC(O)CC2)c1 [Example 186, N-(3-(2-(4-hydroxypiperidin-1-yl)-6-(tetrahydro-2H-pyran-4-yl)pyridin-4-yl)-4-methylphenyl)-3-(trifluoromethyl) benzamide] | 0.83 nM
CCOc1ncc(-c2cc(NC(=O)c3cccc(C(F)(F)F)c3)cnc2C)cc1C1(F)CCOC1 (centres unmarked) [Example 297, N-(6′-ethoxy-5′-(3-fluorotetrahydro-furan-3-yl)-2-methyl-[3,3′-bipyridin]-5-yl)-3-(trifluoro-methyl)benzamide] | 1 nM
CCOc1ncc(-c2cc(NC(=O)c3ccnc(C(C)(C)C#N)c3)ccc2C)cc1C1(CF)CCOC1 (centres unmarked) [Example 288, 2-(2-cyanopropan-2-yl)-N-(3-(6-ethoxy-5-(3-(fluoromethyl)tetrahydrofuran-3-yl)pyridin-3-yl)-4-methylphenyl)isonicotinamide] | 0.6 nM
